Data on 2 compounds can be found in patent US20150329498A1, “IRAK INHIBITORS AND USES THEREOF” (Nimbus Iris, Inc., priority 2014, published 2015).

Experiment [1] relates to LPS induced TNF alpha production. Description: Inhibition of LPS induced TNFα production in vivo. The note with it: female Lewis rats, dosed PO 2 hours prior to LPS IV, serum TNFα after 1 hr; minimum efficacious dose. As for the experimental part:
Selected compounds were tested in vivo in female Lewis rats for LPS induced TNF alpha production by dosing PO for 2 hours prior to LPS administration IV, followed by bleeding after 1 hr for measurement of TNFα produced in serum using ELISA (Biosource). […] Compounds having an activity designated as “A” provided a MED<5.0 mg/kg; compounds having an activity designated as “B” provided a MED of 5.0-20 mg/kg; compounds having an activity designated as “C” provided a MED of 20-50 mg/kg; compounds having an activity designated as “D” provided a MED of >50 mg/kg

Experiment [2] has as its target T1, IRAK4 (Homo sapiens, UniProt Q9NWZ3).
T1 construct: purchased CARNA Bioscience 09-145
T1 sequence (Q9NWZ3 1-460): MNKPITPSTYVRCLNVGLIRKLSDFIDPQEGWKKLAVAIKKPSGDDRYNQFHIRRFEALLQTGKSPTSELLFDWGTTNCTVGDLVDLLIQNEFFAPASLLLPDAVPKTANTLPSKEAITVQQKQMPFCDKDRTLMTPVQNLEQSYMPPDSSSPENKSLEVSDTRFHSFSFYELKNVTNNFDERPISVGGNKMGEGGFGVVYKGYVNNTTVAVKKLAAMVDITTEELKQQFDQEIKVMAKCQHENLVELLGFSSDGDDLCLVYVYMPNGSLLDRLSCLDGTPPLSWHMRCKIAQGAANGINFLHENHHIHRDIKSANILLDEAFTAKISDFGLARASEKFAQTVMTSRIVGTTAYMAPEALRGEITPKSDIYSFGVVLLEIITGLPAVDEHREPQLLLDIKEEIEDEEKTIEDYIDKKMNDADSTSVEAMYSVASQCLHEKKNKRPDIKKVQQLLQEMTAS
Description: IRAK-4 activity inhibition assay (Caliper). It is filed as biochemical. The note with it: 3.5 nM IRAK4, 1.5 μM Peptide 8, 37 μM ATP. Summed up: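 Mobility-shift (Caliper) assay with 3.5 nM IRAK4 in 50 mM HEPES pH 7.5, 0.0015% Brij-35, 5 mM MgCl2, 1 mM MnCl2, 2 mM DTT. Enzyme preincubated with compound 10 min at room temperature, then 1.5 μM peptide 8 and 37 μM ATP for 40 min. Inhibition from conversion % relative to DMSO and no-enzyme controls; 10-point IC50.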

In experiment [3] the test system is IFNα production in human white blood cells (hWBC). Description: CpG induced IFNα production in hWBC. In kind it is cell-based. The note with it: 0.5 uM CpG, 20 hours. The procedure: (§1) Compounds of the present invention were also studied in in vitro cytokine production assays. Exemplary protocols follow.
(§2) Human whole blood and hWBC assays: Human whole blood was diluted by combining whole blood with no serum RPMI medium at a ratio of 1:1. 180 ul/well of the diluted whole blood/well was added to a 96 well plate. For WBC assay 100,000 cells/well were seeded in a 96-well plate with a volume of 100 ul/well. To make the compound master plate 9 ul of 30 mM compound solution was added into the wells in the assigned rows, then serial solutions with 4x dilutions were made in DMSO. That is, 9 uL of 100% DMSO were added into each of the rest wells and 3 uL of compound solution was taken from the one-step higher concentration solution and mixed well with the DMSO. An intermediate compound dilution plate was made by mixing 4 uL of the compound solution from the compound master plate with 196 uL of no serum RPMI medium. hWBC or human whole blood was treated for 0.5 hour by adding 20 uL/well of the compound and the control solutions from the intermediate compound plate to the cell plate. 80 uL/well or 20 uL/well of stimulant were then added to the human whole blood or hWBC respectively. […] The supernatants were then collected and cytokine levels were measured with ELISA for TNFα (R&D Systems, #DY210) and IFNα (R&D Systems, #41100-2) per manufacturer's instruction.

Experiment [4] concerns TNFα production in human white blood cells (hWBC). Description: LPS induced TNFα production in hWBC. In kind it is cell-based. The note with it: 1 ug/mL LPS, 20 hours. The procedure:
as §1, §2

Structures are written as SMILES.

As a reminder, the IC50 is the concentration that gives 50% inhibition. Low values mean higher potency, high ones lower potency.

Regarding `N#Cc1ccc2ncnc(N[C@H]3CC[C@H](N4CCOCC4)CC3)c2c1` [Compound I-3, 4-(((1r,4r)-4-morpholinocyclohexyl)amino)quinazoline-6-carbonitrile], in experiment [1], the “MED (mg/kg)” value was “C (MED of 20-50 mg/kg)”. The half-inhibitory concentration (IC50) in experiment [2] was at most 5000 nM; in experiment [3] it was 1000 to 10000 nM; in experiment [4], 250 to 1000 nM.
Taken in the same sequence, the figures for `N#Cc1ccc2ncnc(N[C@H]3CC[C@H](N4CCC5(CC4)CC5)CC3)c2c1` [Compound I-7, 4-(((1r,4r)-4-(6-azaspiro[2.5]octan-6-yl)cyclohexyl)amino)-quinazoline-6-carbonitrile] were “A (MED<5.0 mg/kg)”, at most 5000 nM, at most 250 nM and 1000 to 10000 nM.
